Reference: PubChem BioAssay (NCI)
“And” between values parts separate entries of the source, which are not always exact repeats. Equal entries are not always repeated.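 Growth conditions: 96-well plates. Treatment: test compound, 48 hours, 5 concentrations. Analysis: linear interpolation between bracketing concentrations; unreached endpoints set to highest concentration. GI50 is the concentration that inhibits growth by half. TGI is the concentration that stops growth completely.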 Where a SMILES comes first, the peptide text is derived from it. Bridges are numbered along the chain shown (N, C = ends). [ ]: non-standard residue; d: D form. The star is where a group is joined. ξ: configuration not given here. ξNMePhe(4-NMe2) = CNC(Cc1ccc(N(C)C)cc1)C(=O)O; Picolinoyl(3-OH) = O=C(c1ncccc1O)*; ξPip(4-oxo) = O=C1CCNC(C(=O)O)C1; Phg = N[CH](C(=O)O)c1ccccc1; Abu = CC[CH](N)C(=O)O

Key:
Assay in all cases: NCI anticancer screen, dose series, 48 h
M14 melanoma = system: M14 melanoma
HT29 colon = system: HT29 colon
NCI-H460 lung = system: NCI-H460 lung
PC-3 prostate = system: PC-3 prostate
SK-OV-3 ovarian = system: SK-OV-3 ovarian
MCF7 breast = system: MCF7 breast
CCRF-CEM leukemia = system: CCRF-CEM leukemia
T-47D breast = system: T-47D breast
HL-60(TB) leukemia = system: HL-60(TB) leukemia
SNB-19 CNS = system: SNB-19 CNS
786-0 renal = system: 786-0 renal
SW-620 colon = system: SW-620 colon
U251 CNS = system: U251 CNS
A498 renal = system: A498 renal
SF-268 CNS = system: SF-268 CNS
BT-549 breast = system: BT-549 breast
HCC-2998 colon = system: HCC-2998 colon
LOX IMVI melanoma = system: LOX IMVI melanoma
CAKI-1 renal = system: CAKI-1 renal
OVCAR-5 ovarian = system: OVCAR-5 ovarian
SK-MEL-28 melanoma = system: SK-MEL-28 melanoma
MDA-MB-435 = system: MDA-MB-435
COLO 205 colon = system: COLO 205 colon
HCT-15 colon = system: HCT-15 colon
SK-MEL-2 melanoma = system: SK-MEL-2 melanoma
RPMI-8226 leukemia = system: RPMI-8226 leukemia
ACHN renal = system: ACHN renal
SK-MEL-5 melanoma = system: SK-MEL-5 melanoma
HOP-62 NSCLC = system: HOP-62 NSCLC
NCI-H226 lung = system: NCI-H226 lung
NCI/ADR-RES ovarian = system: NCI/ADR-RES ovarian
NCI-H522 lung = system: NCI-H522 lung
HCT-116 colon = system: HCT-116 colon
TK-10 renal = system: TK-10 renal
UACC-62 melanoma = system: UACC-62 melanoma
NCI-H23 lung = system: NCI-H23 lung
HS 578T breast = system: HS 578T breast
OVCAR-8 ovarian = system: OVCAR-8 ovarian
RXF 393 renal = system: RXF 393 renal
SF-295 CNS = system: SF-295 CNS
IGROV1 ovarian = system: IGROV1 ovarian
OVCAR-4 ovarian = system: OVCAR-4 ovarian
OVCAR-3 ovarian = system: OVCAR-3 ovarian
MOLT-4 leukemia = system: MOLT-4 leukemia
HOP-92 NSCLC = system: HOP-92 NSCLC
EKVX NSCLC = system: EKVX NSCLC
SN12C renal = system: SN12C renal
SF-539 CNS = system: SF-539 CNS
KM12 colon = system: KM12 colon
MDA-MB-231 breast = system: MDA-MB-231 breast
DU-145 prostate = system: DU-145 prostate
A549 NSCLC = system: A549 NSCLC
MALME-3M melanoma = system: MALME-3M melanoma
UO-31 renal = system: UO-31 renal
SNB-75 CNS = system: SNB-75 CNS
K-562 leukemia = system: K-562 leukemia
SR leukemia = system: SR leukemia
UACC-257 melanoma = system: UACC-257 melanoma

SMILES: Nc1ncnc2c(C3OC(CO)C(O)C3O)nsc12 (configuration not stated)
- TGI (M14 melanoma): > 75 µM
- TGI (HT29 colon): > 100 µM
- TGI (NCI-H460 lung): > 100 µM
- GI50 (PC-3 prostate): 4.6 µM
- GI50 (SK-OV-3 ovarian): 3.25 µM
- TGI (SK-OV-3 ovarian): 20.3 µM
- TGI (MCF7 breast): > 100 µM
- TGI (CCRF-CEM leukemia): 16.5 µM and > 100 µM
- GI50 (T-47D breast): < 0.0162 µM
- TGI (T-47D breast): > 48.6 µM
- GI50 (HL-60(TB) leukemia): 1.52 µM
- TGI (HL-60(TB) leukemia): 7.5 µM
- TGI (SNB-19 CNS): > 100 µM
- TGI (786-0 renal): > 100 µM
- TGI (SW-620 colon): > 100 µM
- TGI (U251 CNS): > 100 µM
- TGI (A498 renal): 1.41 µM
- TGI (SF-268 CNS): > 100 µM

SMILES: CC(C)CCCC(C)[C@H]1CC[C@H]2[C@@H]3CC[C@H]4C[C@@H](CCC=C(c5cc(Cl)c(O)c(C(=O)O)c5)c5cc(Cl)c(O)c(C(=O)O)c5)CC[C@]4(C)[C@H]3CC[C@]12C (some centres not stated) (tested in a mixture with another compound)
- TGI (BT-549 breast): > 50 µM
- TGI (HCC-2998 colon): > 50 µM
- TGI (LOX IMVI melanoma): > 50 µM
- TGI (CAKI-1 renal): > 50 µM
- TGI (OVCAR-5 ovarian): > 50 µM
- TGI (SK-MEL-28 melanoma): > 50 µM
- TGI (M14 melanoma): > 50 µM
- TGI (HT29 colon): > 50 µM
- TGI (MDA-MB-435): > 50 µM
- TGI (COLO 205 colon): > 50 µM
- TGI (HCT-15 colon): > 50 µM
- TGI (SK-MEL-2 melanoma): > 50 µM
- TGI (RPMI-8226 leukemia): > 50 µM
- TGI (NCI-H460 lung): > 50 µM
- TGI (ACHN renal): > 50 µM
- TGI (PC-3 prostate): > 50 µM
- TGI (SK-MEL-5 melanoma): > 50 µM
- TGI (HOP-62 NSCLC): > 50 µM
- TGI (NCI-H226 lung): > 50 µM
- TGI (NCI/ADR-RES ovarian): > 50 µM
- TGI (SK-OV-3 ovarian): > 50 µM
- TGI (NCI-H522 lung): > 50 µM
- TGI (HCT-116 colon): > 50 µM
- TGI (TK-10 renal): > 50 µM
- TGI (MCF7 breast): > 50 µM
- TGI (CCRF-CEM leukemia): > 50 µM
- TGI (UACC-62 melanoma): > 50 µM
- TGI (NCI-H23 lung): > 50 µM
- TGI (HS 578T breast): > 50 µM
- TGI (OVCAR-8 ovarian): > 50 µM
- TGI (RXF 393 renal): > 50 µM
- TGI (SF-295 CNS): > 50 µM
- TGI (IGROV1 ovarian): > 50 µM
- TGI (T-47D breast): > 50 µM
- TGI (OVCAR-4 ovarian): > 50 µM
- TGI (OVCAR-3 ovarian): > 50 µM
- TGI (MOLT-4 leukemia): > 50 µM
- TGI (HL-60(TB) leukemia): > 50 µM
- TGI (HOP-92 NSCLC): > 50 µM
- TGI (SNB-19 CNS): > 50 µM
- TGI (EKVX NSCLC): > 50 µM
- TGI (SN12C renal): > 50 µM
- TGI (SF-539 CNS): > 50 µM
- TGI (786-0 renal): > 50 µM
- TGI (SW-620 colon): > 50 µM
- TGI (KM12 colon): > 50 µM
- TGI (U251 CNS): > 50 µM
- TGI (MDA-MB-231 breast): > 50 µM
- TGI (DU-145 prostate): > 50 µM
- TGI (A549 NSCLC): > 50 µM
- TGI (MALME-3M melanoma): > 50 µM
- TGI (A498 renal): > 50 µM
- TGI (UO-31 renal): 27.2 µM
- TGI (SNB-75 CNS): > 50 µM
- TGI (K-562 leukemia): > 50 µM
- TGI (SF-268 CNS): > 50 µM

SMILES: CC(C)(C)c1cc(C(=O)/C=C/c2ccc3c(c2)CCO3)cc(C(C)(C)C)c1O
- TGI (BT-549 breast): > 63.6 µM
- TGI (HCC-2998 colon): 3.8 µM
- TGI (LOX IMVI melanoma): > 100 µM
- TGI (CAKI-1 renal): 22.1 µM
- TGI (SR leukemia): 7.39 µM
- TGI (OVCAR-5 ovarian): > 27.6 µM
- TGI (SK-MEL-28 melanoma): > 100 µM
- TGI (M14 melanoma): 5.25 µM
- TGI (HT29 colon): > 27.2 µM
- TGI (MDA-MB-435): 0.91 µM
- TGI (COLO 205 colon): 1.58 µM
- TGI (HCT-15 colon): > 25.9 µM
- TGI (SK-MEL-2 melanoma): 13.1 µM
- TGI (RPMI-8226 leukemia): 4.45 µM
- TGI (NCI-H460 lung): 1.92 µM
- TGI (ACHN renal): > 100 µM
- TGI (PC-3 prostate): 4.8 µM
- TGI (SK-MEL-5 melanoma): 6.65 µM
- TGI (HOP-62 NSCLC): > 93.7 µM
- TGI (NCI-H226 lung): > 28.4 µM
- TGI (NCI/ADR-RES ovarian): 1.05 µM
- TGI (SK-OV-3 ovarian): > 80.3 µM
- TGI (NCI-H522 lung): 2.16 µM
- TGI (HCT-116 colon): > 33.7 µM
- TGI (TK-10 renal): > 25.9 µM
- TGI (MCF7 breast): > 100 µM
- TGI (CCRF-CEM leukemia): > 31.5 µM
- TGI (UACC-62 melanoma): 29.6 µM
- TGI (NCI-H23 lung): > 24.5 µM
- TGI (HS 578T breast): > 29.5 µM
- TGI (OVCAR-8 ovarian): > 100 µM
- TGI (RXF 393 renal): 0.579 µM
- TGI (IGROV1 ovarian): > 100 µM
- TGI (T-47D breast): > 100 µM
- TGI (OVCAR-3 ovarian): > 100 µM
- TGI (MOLT-4 leukemia): > 31.3 µM
- TGI (HL-60(TB) leukemia): 5.53 µM
- TGI (HOP-92 NSCLC): > 100 µM
- TGI (SNB-19 CNS): > 82.3 µM
- TGI (EKVX NSCLC): > 100 µM
- TGI (SN12C renal): > 33.9 µM
- TGI (SF-539 CNS): 1.46 µM
- TGI (786-0 renal): 11.2 µM
- TGI (SW-620 colon): > 100 µM
- TGI (KM12 colon): 3.66 µM
- TGI (U251 CNS): 3.17 µM
- TGI (MDA-MB-231 breast): 6.54 µM
- TGI (A549 NSCLC): 22.9 µM
- TGI (MALME-3M melanoma): > 100 µM
- TGI (A498 renal): 24.4 µM
- TGI (UO-31 renal): > 54 µM
- TGI (K-562 leukemia): > 100 µM
- TGI (SF-268 CNS): 24.5 µM

SMILES: CCC1NC(=O)C(NC(=O)c2ncccc2O)C(C)OC(=O)C(c2ccccc2)NC(=O)C2CC(=O)CCN2C(=O)C(Cc2ccc(N(C)C)cc2)N(C)C(=O)C2CCCN2C1=O (configuration not stated) (tested in a mixture with another compound) ({Picolinoyl(3-OH)}-T[Abu]P[ξNMePhe(4-NMe2)][ξPip(4-oxo)][Phg]; ester 1-C; configuration not given here)
- TGI (BT-549 breast): 53.2 µM
- TGI (UACC-257 melanoma): 22.3 µM
- TGI (NCI-H226 lung): 42.1 µM
- TGI (NCI-H23 lung): 34.5 µM
- TGI (HOP-92 NSCLC): 25.5 µM
